Test results reported in patent US5242942A, “Anticonvulsant fructopyranose cyclic sulfites and sulfates” (McNeilab, Inc., priority 1992, dated 1993).

Legend:
carbonic anhydrase = carbonic anhydrase inhibition, 18O-exchange mass spectrometry, disrupted hepatocytes; type: biochemical; settings: 250 μM, disrupted male rat hepatocytes, 37° C., pH 7.4, 25 mM aqueous NaHCO3
Procedure: Compounds of formula (I) are also inhibitors of carbonic anhydrase, and as such, are useful in the treatment of glaucoma. Such activity may be determined by mass spectrometry using the ^18 O-exchange technique described by Dodgson and Forster in J. Appl. Physiol. 1983, 55, 1293. Specifically, this assay was conducted by first killing the male rats and then removing their livers. Their livers were placed in a cold physiological saline solution. The liver tissue was then minced with scissors and shaken in a protolytic enzyme solution to promote disassociation of the hepatocytes. The dissociated hepatocytes were then washed in a cold saline solution and used for determination of carbonic anhydrase activity.
[…] The continuous readout of the mass 44 peak gives a continuous record of the constancy of the pH of the reaction medium since the height of the mass 44 peak is very sensitive to pH. The pH of the medium was read from the pH meter and used to calibrate the mass 44 peaks at regular intervals.
An 8 mL glass chamber, with openings for a pH electrode and sample insertion, was used for continuous mass spectrophotometric measurement of C^16 O^16 O (mass 44) and C^16 O^18 O (mass 46) dissolved in aqueous bicarbonate buffer. […] The pH was constantly monitored by a combination glass pH electrode (Radiometer model gK 2641C). […]

Total Acid Output = assay: pylorus-ligated rat test, gastric antisecretory activity; type: in vivo, rat (male Charles River Sprague-Dawley derived); settings: PO, read-out: ED50, inhibition of Total Acid Output
Procedure: The gastric antisecretory activity of the compounds shown in Table II was determined by the pylorus-ligated rat test described by Shay et al. in Gastroenterol. 1954, 26, 906. In this method, male Charles River Sprague-Dawley derived rats weighing 150-300 grams were deprived of food but not water for 18-24 hours prior to use. Water was withheld during the experiment, however. The rats were weighed, lightly anesthetized with ether and the pylorus ligated according to the method of Shay et al., supra. The treatment or vehicle control was then administered intraperitoneally (IP) or orally (PO). When administered by the IP route, the administration was done 30 minutes before ligation. When administered by the PO route, the administration was done prior to ligation (about 1/2 to 3 hours before). Rats were housed two per cage and sacrificed with carbon dioxide 3 hours after ligation. Their stomachs were removed, rinsed, and contents emptied into a graduated centrifuge tube. The tubes were centrifuged, the volume of gastric juice was recorded, and any samples obviously contaminated by feces, food or blood were eliminated. A 1 mL aliquot of gastric juice was titrated with 0.1N NaOH to a pH of 7.0-7.4. The volume of gastric juice secreted, the acid concentration, and the product of the volume times the concentration, i.e. the total amount of acid secreted, were measured. The total acid output was calculated by multiplying the volume of gastric juices collected times the hydrogen ion concentration (amount of NaOH added to a sample to reach a pH of 7.0-7.4) and dividing that value by 10. The mean value of the total acid output for a control group of rats was then subtracted from the mean value of the total acid output for the group of rats tested at the same dose. That value was then divided by the mean value of total acid output for the control group and the resulting number was multiplied by 100 to provide a Percent Inhibition value, which values are reported in Table II. The […] was determined statistically as the dose at which a 50% inhibition would be realized.

rat diuresis study = type: in vivo, rat (male Wistar); settings: 6.3 mg/kg PO, average of five animals
Source text: Evidence for the inhibition of carbonic anhydrase by compounds of the formula (I) can also be obtained by a diuresis study, such as described by A. Weiner in Goodman and Gilman's The Pharmacological Basis of Therapeutics, 8th ed.; Goodman Gilman, A.; Rall, T. W.; Nies, A. S.; Taylor, P., Eds.; Pergamon Press: New York, 1990; pp 716-718. An increase in urine akalinity accompanied with an increase in water intake and urine output provides an indirect indication of carbonic anhydrase inhibition activity. Male Wistar rats having a weight of 250-300 g were dosed orally (PO) and housed in cages that allowed for the quantitative measure of fluid intake and urine output. Water intake and urine output were measured at 24 hours versus control, whereas urine pH, obtained via pH meter, was measured at 4 and 24 hours versus control. The results of this study, which are the average of five animals, are reported below in Table III. […] Such data is also an indication of the usefulness of the compounds of formula (I) as diuretics in the treatment of hypertension, congestive heart failure and other types of edema. The determination of suitable dosages for such compounds for the treatment of hypertension and congestive heart failure and other types of edema is within the skill of the art.

What does the source list for `CC1(C)O[C@H]2[C@@H]3OS(=O)(=O)O[C@@H]3CO[C@@]2(COS(N)(=O)=O)O1` [Example 1, 2,3-O-(1-Methylethylidene)-4,5-O-sulfonyl-β-D-fructopyranose Sulfamate]?
inhibition of all hepatocyte carbonic anhydrase (carbonic anhydrase): Maximal inhibition; ED50 (Total Acid Output): 20 mg/kg; Urine pH (rat diuresis study; 4 hours, control 6.98): 8.99; Urine pH (rat diuresis study; 24 hours, control 6.43): 7.03; Water Intake (rat diuresis study; 24 hours, control 15.0): 24.0 mL; Urine Output (rat diuresis study; 24 hours, control 17.6): 28.3 mL
